Test results from patent EP1181934A1, “INHIBITORS FOR OPTIC HYPOFUNCTION CAUSED BY OPTIC NERVE CELL INJURY INDUCED BY FACTORS OTHER THAN OPTIC CIRCULATORY DISORDER” (Senju Pharmaceutical Co., Ltd., priority 1999, dated 2000).

What was measured:
[1] = tested on: ischemic retinal neurocyte disorder; conditions: calcium antagonists; experiment models such as high ocular pressure rat models and central retinal artery and vein ligation models; cited from earlier work
[2] = tested on: retinal ganglion cells; test: cell death induction by increased intracellular calcium amount (kainic acid) in isolated retinal ganglion cells, MTT; format: cell-based; conditions: retinal ganglion cells of 8-day-old rats, 5 mM calcium chloride, pH 6.0, 1 h pre-incubation with compound, then 200 µM kainic acid, vs cell death induction group, P<0.01 (Fig. 2)
Protocol: The retina was obtained from ten 8-day-old rats and treated with papain to give a cell suspension. Using a non-coat dish (TERUMO) and a dish (CORNING) coated with Thy-1.1 antibody (American Type Culture Collection, […]), retinal ganglion cells alone were isolated from the whole cells of the retina. The retinal ganglion cells on the dish were trypsinized and recovered. Then the recovered retinal ganglion cells were plated on a 96 well plate coated with poly-D-lysine and laminin at a concentration of 5000 cells/well/100 μl. The isolated retinal ganglion cells were divided for the normal group, cell death induction group and inventive compound administration group. As the cultures of the cell death induction group and inventive compound administration group, calcium chloride was added to Neurobasal medium (GIBCO) at a final concentration of 5 mM to adjust its pH to 6.0 and used. As the additives to the culture, 40 ng/ml BDNF (Pepro Tech), 40 ng/ml CNTF (Sigma), 5 μM Forskolin (Sigma), 1 mM glutamine (Wako), 50x B27 supplement (GIBCO) and Pen-strep (GIBCO) were added. For the inventive compound administration group, the inventive compound was added simultaneously with the plating of the cells and pre-incubated at 37°C for 1 h. After 1 h, kainic acid having a final concentration of 200 μM was added and the mixture was incubated at 37°C to induce cell death. […]

[3] = tested on: retinal ganglion cells; test: central retinal artery and vein ligation model (ischemia/re-perfusion), retinal ganglion cell count; format: in vivo; conditions: male SD rats; hemostasis 55 minutes; 10 µg/kg via the tail vein twice (15 min before hemostasis and immediately after declamping); day 7 from release from ischemia; vs ischemic re-perfusion group, P<0.027 (Fig. 1, n=6)
Protocol: Effect of the inventive compound on an ophthalmic nerve cell disorder in rats was tested using a central retinal artery and vein ligation model, which is a model for examining increase in a calcium amount in an optic nerve cell.
Male SD rats (body weight 150 g) were grouped into a normal group, ischemic re-perfusion group and inventive compound administration group. The ischemic re-perfusion group and the inventive compound administration group were anesthetized with pentobarbital 50 mg/kg, and the central retinal artery and vein were ligated with an arterial aneurysm clip for hemostasis for 55 minutes. At 7 days from declamping, eyeballs were removed and fixed with 4% formaldehyde to prepare a tissue sample. After embedding in paraffin according to a conventional method, a thin slice (2 µm thick) was prepared by horizontal section vertical to a surface of the retina including the optic disc, and stained with hematoxylin-eosin. The number of retinal ganglion cells per a 0.25 mm retina vertical section at a certain distance (1-2 mm) from the optic disc was counted under an optical microscope. As regards the normal group, the number of retinal ganglion cells was counted in the same manner only with exposure of the central retinal artery and vein and without hemostasis. […]
Significance was detected by the Student's t-Test.

| Compound | inhibition of ischemic retinal neurocyte disorder [1] | viability (%) relative to that of a normal group (retinal ganglion cell count) [2] | number of residual retinal ganglion cells in 0.25 mm of vertical retinal cross section [3] |
| --- | --- | --- | --- |
| Fc1ccc(C(c2ccc(F)cc2)N2CCN(C/C=C/c3ccccc3)CC2)cc1 [flunarizine] | inhibited ischemic retinal neurocyte disorder |  |  |
| C=CCN1CCN(CC(C)(C)COC(=O)C2=C(C)NC(C)=C(C(=O)OC)C2c2cccc([N+](=O)[O-])c2)CC1.Cl.Cl (stereo not drawn) [inventive compound, 3-(4-allyl-1-piperazinyl)-2,2-dimethylpropyl methyl 2,6-dimethyl-4-(m-nitrophenyl)-1,4-dihydropyridine-3,5-dicarboxylate dihydrochloride] |  | significantly inhibited decrease in the retinal ganglion cell count | significantly inhibited decrease in the retinal ganglion cell count |
